From patent publication US20110046185A1, “Arylchalcogenoarylalkyl-substituted imidazolidine-2,4-diones, process for preparation thereof, medicaments comprising these compounds and use thereof” (SANOFI-AVENTIS, priority 2008, published 2011)
Like-named read-outs stand apart in the source and are kept apart here.

Assays:
hCB1R [1] = molecular target: T1, hCB1R (Homo sapiens, UniProt P21554); test: Binding to the CB1 receptor ([3H]-SR141716A displacement, CHO-K1/cannabinoid CB1 protein); design: expressed in transfected cells
Experimental: Test compounds: The compounds (3 μl, 10 mM, 100% DMSO), pipetted into 96-well PP microtiter plates, were diluted with 27 μl of 100% DMSO (dimethyl sulfoxide). Proceeding from this solution, further 3-fold dilution steps were undertaken by transferring 10 μl in each case to a new PP microtiter plate and adding a further 20 μl of 100% DMSO. In each case 6 μl of these solutions were transferred into new 96-well PP microtiter plates and made up with 144 μl of assay buffer. The end concentrations ranged from 10 μM to 0.005 μM.
Negative control: AM 251, dissolved in assay buffer with 1% DMSO, was added to the dilution series in the microtiter plates as a control. The end concentration was 1 μM.
Blank control: assay buffer with 1% DMSO was added to the dilution series of the microtiter plates as a blank control.
The values were calculated using the corrected raw data.
The values reported were obtained as average values of a double determination. The IC50 values were calculated from the measurements with the program Xlfit, formula 205. Ki values were obtained from the IC50 and Kd values utilizing the Cheng-Prusoff equation: […]
Literature: Cheng, Y.-C., and Prusoff, W. H. (1973) Biochem. Pharmacol 22, 3099-3108 Results: Ki values of example compounds;

hCB1R [2] = molecular target: T1, hCB1R; test: In vitro functional FLIPR assay with recombinant HEK293 cells, cannabinoid 1 receptor; format: cell-based; design: expressed in transfected cells; host or cells: HEK293; details: recombinant HEK293 cells expressing CB1 and Galpha16; Ca2+ change vs reference agonist
Experimental: (§1) Function-testing assays were performed by means of the FLIPR technique (“Fluorometric Imaging Plate Reader”, Molecular Devices Corp.).
(§2) To this end, ligand-induced changes in the intracellular concentration of Ca^2+ in recombinant HEK293 cells, which expressed both a cannabinoid receptor (CB1 or CB2) and G-protein Galpha16, were determined. For the studies, cells were sown into 96-well microtiter plates (60 000 cells/well) and left to grow overnight. The medium was removed and the cells were incubated in buffer which contained the fluorescent dye Fluo-4. After this loading with dye, the cells were washed, test substance was added dissolved in buffer, the mixture was incubated for 20 minutes, a known cannabinoid receptor agonist as a reference agonist was added in buffer and, finally, the changes in the intracellular Ca^2+ concentration were measured in the FLIPR unit.
(§3) Results were presented as the percentage change relative to the control (0%: analogous experiment without test substance and without reference agonist, i.e. only with buffer; 100%: analogous experiment without test substance, but with reference agonist in excess), and used to calculate dose/action curves, and IC50 values were determined.

hCB2R = molecular target: T2, hCB2R (Homo sapiens, UniProt P34972); test: In vitro functional FLIPR assay with recombinant HEK293 cells, cannabinoid 2 receptor; format: cell-based; details: recombinant HEK293 cells expressing CB2 and Galpha16; Ca2+ change vs reference agonist
T2 construct: expressed in transfected cells; host or cells: HEK293
Experimental: as §1, §2, §3

[3] = [3H]-SR141716A 0.5 nM, Ki from IC50 by Cheng-Prusoff, average of double determination, read-out: hCB1R, binding Ki

T1 sequence (P21554 whole entry): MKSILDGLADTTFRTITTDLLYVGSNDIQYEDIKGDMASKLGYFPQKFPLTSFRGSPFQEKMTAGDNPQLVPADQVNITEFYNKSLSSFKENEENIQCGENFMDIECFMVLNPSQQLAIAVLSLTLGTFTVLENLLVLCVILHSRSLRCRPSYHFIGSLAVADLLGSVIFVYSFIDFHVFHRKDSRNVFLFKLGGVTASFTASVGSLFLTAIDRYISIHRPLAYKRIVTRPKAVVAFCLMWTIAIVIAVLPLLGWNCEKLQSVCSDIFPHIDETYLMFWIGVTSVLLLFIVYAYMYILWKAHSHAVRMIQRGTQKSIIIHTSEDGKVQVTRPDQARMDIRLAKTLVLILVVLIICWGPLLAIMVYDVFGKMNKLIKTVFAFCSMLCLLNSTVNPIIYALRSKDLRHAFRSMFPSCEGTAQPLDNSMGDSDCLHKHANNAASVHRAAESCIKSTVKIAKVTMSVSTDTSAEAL
T2 sequence (P34972 whole entry): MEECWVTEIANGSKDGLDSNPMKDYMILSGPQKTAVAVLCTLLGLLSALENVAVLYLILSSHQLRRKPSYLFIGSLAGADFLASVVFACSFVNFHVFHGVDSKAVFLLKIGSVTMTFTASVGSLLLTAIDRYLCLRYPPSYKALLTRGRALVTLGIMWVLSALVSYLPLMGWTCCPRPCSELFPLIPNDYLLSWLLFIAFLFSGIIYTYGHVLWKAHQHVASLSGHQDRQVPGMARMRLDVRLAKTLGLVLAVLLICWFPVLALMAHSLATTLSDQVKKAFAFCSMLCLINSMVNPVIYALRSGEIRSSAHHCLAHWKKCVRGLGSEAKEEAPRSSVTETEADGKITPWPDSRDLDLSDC

| Ki (hCB1R [1]; [3]) | Structure (SMILES) | IC50 (hCB1R [2]) | IC50 (hCB2R) | Ki (hCB1R [1]) |
| --- | --- | --- | --- | --- |
| 289 nM | CC1(C)C(=O)N(c2cccc(SC(F)(F)F)c2)C(=O)N1Cc1ccccc1Oc1ccccc1 [Example 14] |  |  |  |
| 2 nM | CC1(C)C(=O)N(c2ccnc(Cl)c2)C(=O)N1Cc1ccccc1Oc1ccccc1 [Example 82] | 100 nM | > 10000 nM |  |
|  | CC1(C)C(=O)N(c2ccc(C#N)c(C(F)(F)F)c2)C(=O)N1Cc1ccccc1Oc1ccc(C(N)=O)cc1 [Example 98, 4-{2-[3-(4-Cyano-3-trifluoromethylphenyl)-5,5-dimethyl-2,4-dioxo-imidazolidin-1-ylmethyl]phenoxy}benzamide] | 507 nM | > 10000 nM |  |
|  | CC1(C)C(=O)N(c2ccc(C#N)c(C(F)(F)F)c2)C(=O)N1Cc1ccccc1Sc1ccc(Cl)cc1 [Example 105, 4-{3-[2-(4-Chlorophenylsulfanyl)benzyl]-4,4-dimethyl-2,5-dioxoimidazolidin-1-yl}-2-trifluoromethylbenzonitrile] |  | > 10000 nM | 44 nM |
| 284 nM | CC1(C)C(=O)N(c2cc(C(F)(F)F)ccc2F)C(=O)N1Cc1ccccc1Oc1ccccc1 [Example 12] |  |  |  |
|  | COC(=O)c1ccc(Oc2ccccc2CN2C(=O)N(c3ccc(C#N)c(C(F)(F)F)c3)C(=O)C2(C)C)cc1 [Example 96] | 152 nM |  | 22 nM |
| 311 nM | CC1(C)C(=O)N(c2ccc(C#N)nc2)C(=O)N1Cc1ccccc1Oc1ccccc1 [Example 86] |  |  |  |
| 24 nM | CC1(C)C(=O)N(c2ccnc(C(F)(F)F)c2)C(=O)N1Cc1ccccc1Oc1ccccc1 [Example 83] |  |  |  |

| Structure (SMILES) | Ki (hCB1R [1]; [3]) | IC50 (hCB1R [2]) | IC50 (hCB2R) | Ki (hCB1R [1]) |
| --- | --- | --- | --- | --- |
| CC1(C)C(=O)N(c2ccc(C#N)c(C(F)(F)F)c2)C(=O)N1Cc1ccccc1Oc1ccc(C(=O)O)cc1 [Example 97, 4-{2-[3-(4-Cyano-3-trifluoromethylphenyl)-5,5-dimethyl-2,4-dioxo-imidazolidin-1-ylmethyl]phenoxy}benzoic acid] | 533 nM |  | > 10000 nM |  |
| CC1(C)C(=O)N(c2cccc(C(F)(F)F)c2)C(=O)N1Cc1ccccc1Oc1ccccc1 [Example 8] | 249 nM |  |  |  |
| CC1(C)C(=O)N(c2ccc(C#N)c(C(F)(F)F)c2)C(=O)N1Cc1ccccc1[S+]([O-])c1ccc(Cl)cc1 (centres unmarked) [Example 107, 4-{3-[2-(4-Chlorobenzenesulfinyl)benzyl]-4,4-dimethyl-2,5-dioxoimidazolidin-1-yl}-2-trifluoromethylbenzonitrile] | 232 nM |  |  |  |
